Data taken from patent US10231954B2, “Neurodegenerative therapies” (LYTIX BIOPHARMA AS, priority 2014, dated 2019).
Read-outs that look alike come from different tables or passages of the source.

Columns and labels:
Type in all cases: biochemical
MAPKAP-K2 = MAPKAP-K2 (Homo sapiens, UniProt P49137); assay: Kinase profiling MAPKAP-K2; conditions: for remaining activity at 100 µM: read-out: residual kinase activity, MAPKAP-K2
Text: (§1) Any value less that 25 is considered to be highly significant inhibition.

PIM2 = PIM2 (Homo sapiens, UniProt Q9P1W9); assay: Kinase profiling PIM2; conditions: for remaining activity at 100 µM: read-out: residual kinase activity, PIM2
Text: as §1

PHK = assay: Kinase profiling PHK
Text: as §1

CHK1 = molecular target: T1, CHK1 (Homo sapiens, UniProt O14757); assay: Kinase profiling CHK1; conditions: for remaining activity at 100 µM: read-out: residual kinase activity, CHK1
T1 sequence (O14757 1-476): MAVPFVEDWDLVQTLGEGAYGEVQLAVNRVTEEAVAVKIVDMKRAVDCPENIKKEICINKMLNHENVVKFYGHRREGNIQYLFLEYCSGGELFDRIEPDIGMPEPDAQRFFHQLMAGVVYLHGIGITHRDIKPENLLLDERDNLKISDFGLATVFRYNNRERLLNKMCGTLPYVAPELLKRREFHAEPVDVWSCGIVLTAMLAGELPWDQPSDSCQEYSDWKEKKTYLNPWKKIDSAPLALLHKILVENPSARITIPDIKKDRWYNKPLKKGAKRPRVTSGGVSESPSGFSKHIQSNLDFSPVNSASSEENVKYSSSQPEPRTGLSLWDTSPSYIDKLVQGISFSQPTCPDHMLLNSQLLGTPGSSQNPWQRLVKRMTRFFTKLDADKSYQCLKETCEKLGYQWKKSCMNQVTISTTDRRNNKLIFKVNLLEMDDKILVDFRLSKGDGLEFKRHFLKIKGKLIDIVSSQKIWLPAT
Text: as §1

MPSK1 = MPSK1 (Homo sapiens, UniProt O75716); assay: Kinase profiling MPSK1; conditions: for remaining activity at 100 µM: read-out: residual kinase activity, MPSK1
Text: as §1

IRR = IRR (Homo sapiens, UniProt P14616); assay: Kinase profiling IRR; conditions: for remaining activity at 100 µM: read-out: residual kinase activity, IRR
Text: as §1

MST3 = MST3 (Homo sapiens, UniProt Q9Y6E0); assay: Kinase profiling MST3; conditions: for remaining activity at 100 µM: read-out: residual kinase activity, MST3
Text: as §1

Aurora A = molecular target: T2, Aurora A (Homo sapiens, UniProt O14965); assay: Kinase profiling Aurora A; conditions: for remaining activity at 100 µM: read-out: residual kinase activity, Aurora A
T2 sequence (O14965 1-403): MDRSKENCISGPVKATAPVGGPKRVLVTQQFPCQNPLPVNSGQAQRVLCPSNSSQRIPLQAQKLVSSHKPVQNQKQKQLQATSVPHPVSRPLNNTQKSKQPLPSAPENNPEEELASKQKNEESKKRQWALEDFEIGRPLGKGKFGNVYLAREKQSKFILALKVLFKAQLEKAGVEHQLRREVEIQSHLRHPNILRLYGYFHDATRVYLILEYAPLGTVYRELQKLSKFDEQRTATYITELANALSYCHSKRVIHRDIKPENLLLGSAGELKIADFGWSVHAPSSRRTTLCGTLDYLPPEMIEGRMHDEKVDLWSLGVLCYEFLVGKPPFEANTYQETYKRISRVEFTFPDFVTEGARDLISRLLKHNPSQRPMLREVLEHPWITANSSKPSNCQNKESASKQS
Text: as §1

EPH-B1 = molecular target: T3, EPH-B1 (Homo sapiens, UniProt P54762); assay: Kinase profiling EPH-B1; conditions: for remaining activity at 100 µM: read-out: residual kinase activity, EPH-B1
T3 sequence (P54762 18-984): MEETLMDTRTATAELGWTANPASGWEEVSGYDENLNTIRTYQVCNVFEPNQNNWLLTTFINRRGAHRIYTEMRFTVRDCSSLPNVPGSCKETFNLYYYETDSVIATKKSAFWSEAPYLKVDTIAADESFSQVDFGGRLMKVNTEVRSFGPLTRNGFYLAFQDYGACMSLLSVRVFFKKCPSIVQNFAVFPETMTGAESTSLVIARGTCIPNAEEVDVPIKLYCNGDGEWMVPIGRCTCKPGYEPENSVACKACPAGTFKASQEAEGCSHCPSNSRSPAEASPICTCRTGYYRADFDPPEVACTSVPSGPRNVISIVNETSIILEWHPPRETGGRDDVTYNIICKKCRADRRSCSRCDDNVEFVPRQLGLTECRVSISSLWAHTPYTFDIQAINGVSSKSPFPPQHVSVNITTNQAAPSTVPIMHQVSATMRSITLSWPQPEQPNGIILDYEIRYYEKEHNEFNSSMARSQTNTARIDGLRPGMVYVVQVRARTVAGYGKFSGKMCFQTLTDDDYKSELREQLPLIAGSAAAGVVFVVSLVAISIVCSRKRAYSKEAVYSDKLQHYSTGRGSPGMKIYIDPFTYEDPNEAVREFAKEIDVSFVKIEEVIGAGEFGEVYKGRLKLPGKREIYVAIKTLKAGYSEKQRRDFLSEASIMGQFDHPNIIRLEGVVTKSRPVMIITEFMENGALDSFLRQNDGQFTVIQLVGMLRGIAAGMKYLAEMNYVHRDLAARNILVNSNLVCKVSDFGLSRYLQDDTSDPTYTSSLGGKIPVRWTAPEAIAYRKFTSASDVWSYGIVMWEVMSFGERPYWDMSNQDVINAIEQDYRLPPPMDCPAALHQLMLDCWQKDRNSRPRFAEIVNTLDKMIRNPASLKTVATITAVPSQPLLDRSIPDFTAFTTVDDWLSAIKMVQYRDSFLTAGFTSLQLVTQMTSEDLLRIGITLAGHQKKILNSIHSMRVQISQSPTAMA
Text: as §1

IR = IR (Homo sapiens, UniProt P06213); assay: Kinase profiling IR; conditions: for remaining activity at 100 µM: read-out: residual kinase activity, IR
Text: as §1

TTBK2 = TTBK2 (Homo sapiens, UniProt Q6IQ55); assay: Kinase profiling TTBK2; conditions: for residual kinase activity, TTBK2: 100 micromolar inhibitor concentration, 100 is no change
Text: as §1

[1] = 100 micromolar inhibitor concentration, 100 is no change
[2] = 100 micromolar inhibitor, 100 = no change

Sequence of MPSK1 (O75716 whole entry, species assumed): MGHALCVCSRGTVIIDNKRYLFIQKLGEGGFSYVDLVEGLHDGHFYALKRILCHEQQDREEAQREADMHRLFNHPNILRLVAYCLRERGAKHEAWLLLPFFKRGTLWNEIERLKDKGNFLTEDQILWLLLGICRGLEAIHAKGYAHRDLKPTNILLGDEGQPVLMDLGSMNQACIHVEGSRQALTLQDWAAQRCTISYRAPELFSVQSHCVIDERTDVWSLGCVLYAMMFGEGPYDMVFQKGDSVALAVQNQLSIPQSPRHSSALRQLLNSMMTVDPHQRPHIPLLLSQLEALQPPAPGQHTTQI
Sequence of PIM2 (Q9P1W9 whole entry, species assumed): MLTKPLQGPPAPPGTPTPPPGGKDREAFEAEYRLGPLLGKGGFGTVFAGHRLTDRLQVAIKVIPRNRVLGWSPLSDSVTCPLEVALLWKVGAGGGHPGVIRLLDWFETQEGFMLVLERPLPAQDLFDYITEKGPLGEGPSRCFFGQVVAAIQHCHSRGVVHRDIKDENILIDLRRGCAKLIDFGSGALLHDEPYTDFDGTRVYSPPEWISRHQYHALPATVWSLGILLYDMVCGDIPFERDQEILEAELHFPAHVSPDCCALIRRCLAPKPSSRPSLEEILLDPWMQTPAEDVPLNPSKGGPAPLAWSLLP
Sequence of IR (P06213 28-1382): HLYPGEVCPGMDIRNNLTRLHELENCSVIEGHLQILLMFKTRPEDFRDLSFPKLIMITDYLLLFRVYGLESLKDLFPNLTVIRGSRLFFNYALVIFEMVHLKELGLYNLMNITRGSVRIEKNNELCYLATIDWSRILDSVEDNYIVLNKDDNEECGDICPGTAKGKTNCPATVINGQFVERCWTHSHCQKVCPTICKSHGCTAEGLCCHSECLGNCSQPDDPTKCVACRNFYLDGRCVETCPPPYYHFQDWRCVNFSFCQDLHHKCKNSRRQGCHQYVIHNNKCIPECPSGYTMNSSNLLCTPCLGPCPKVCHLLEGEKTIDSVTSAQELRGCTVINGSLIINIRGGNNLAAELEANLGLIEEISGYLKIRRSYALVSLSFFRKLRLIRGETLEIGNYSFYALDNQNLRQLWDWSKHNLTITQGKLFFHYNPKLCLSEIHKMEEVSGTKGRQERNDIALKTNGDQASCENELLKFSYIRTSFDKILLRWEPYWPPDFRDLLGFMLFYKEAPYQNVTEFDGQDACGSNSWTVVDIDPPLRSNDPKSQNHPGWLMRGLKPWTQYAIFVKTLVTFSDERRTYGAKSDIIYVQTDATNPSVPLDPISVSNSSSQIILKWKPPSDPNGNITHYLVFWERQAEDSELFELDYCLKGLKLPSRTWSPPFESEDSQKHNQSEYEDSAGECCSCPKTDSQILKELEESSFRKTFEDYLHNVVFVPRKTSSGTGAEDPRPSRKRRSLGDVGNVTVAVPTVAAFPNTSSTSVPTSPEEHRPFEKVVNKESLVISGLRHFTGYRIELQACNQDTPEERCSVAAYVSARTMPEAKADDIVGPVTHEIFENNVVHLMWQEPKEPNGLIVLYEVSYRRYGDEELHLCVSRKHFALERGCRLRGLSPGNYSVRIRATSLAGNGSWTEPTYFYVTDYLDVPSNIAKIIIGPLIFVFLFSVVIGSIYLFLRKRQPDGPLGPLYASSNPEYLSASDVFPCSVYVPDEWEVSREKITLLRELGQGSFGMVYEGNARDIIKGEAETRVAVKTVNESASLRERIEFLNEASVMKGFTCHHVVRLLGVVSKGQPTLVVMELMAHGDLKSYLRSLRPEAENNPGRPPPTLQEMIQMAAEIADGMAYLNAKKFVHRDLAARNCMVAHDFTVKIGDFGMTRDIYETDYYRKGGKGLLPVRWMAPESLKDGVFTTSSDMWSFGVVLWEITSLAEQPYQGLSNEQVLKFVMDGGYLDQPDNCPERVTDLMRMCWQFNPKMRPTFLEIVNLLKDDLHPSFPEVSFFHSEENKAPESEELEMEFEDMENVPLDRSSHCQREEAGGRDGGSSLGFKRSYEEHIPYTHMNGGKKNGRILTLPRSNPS
Sequence of MAPKAP-K2 (P49137 whole entry, species assumed): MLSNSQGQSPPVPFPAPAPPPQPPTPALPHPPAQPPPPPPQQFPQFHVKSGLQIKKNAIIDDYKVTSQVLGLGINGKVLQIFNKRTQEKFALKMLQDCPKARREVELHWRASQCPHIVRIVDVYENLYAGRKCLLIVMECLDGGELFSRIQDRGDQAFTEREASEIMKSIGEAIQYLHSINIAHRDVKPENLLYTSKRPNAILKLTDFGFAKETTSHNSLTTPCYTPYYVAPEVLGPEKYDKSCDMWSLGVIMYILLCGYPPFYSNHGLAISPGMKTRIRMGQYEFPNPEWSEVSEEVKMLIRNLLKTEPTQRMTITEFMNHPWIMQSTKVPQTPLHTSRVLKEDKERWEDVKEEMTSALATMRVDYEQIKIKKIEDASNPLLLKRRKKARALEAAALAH
Sequence of IRR (P14616 27-1297, species assumed): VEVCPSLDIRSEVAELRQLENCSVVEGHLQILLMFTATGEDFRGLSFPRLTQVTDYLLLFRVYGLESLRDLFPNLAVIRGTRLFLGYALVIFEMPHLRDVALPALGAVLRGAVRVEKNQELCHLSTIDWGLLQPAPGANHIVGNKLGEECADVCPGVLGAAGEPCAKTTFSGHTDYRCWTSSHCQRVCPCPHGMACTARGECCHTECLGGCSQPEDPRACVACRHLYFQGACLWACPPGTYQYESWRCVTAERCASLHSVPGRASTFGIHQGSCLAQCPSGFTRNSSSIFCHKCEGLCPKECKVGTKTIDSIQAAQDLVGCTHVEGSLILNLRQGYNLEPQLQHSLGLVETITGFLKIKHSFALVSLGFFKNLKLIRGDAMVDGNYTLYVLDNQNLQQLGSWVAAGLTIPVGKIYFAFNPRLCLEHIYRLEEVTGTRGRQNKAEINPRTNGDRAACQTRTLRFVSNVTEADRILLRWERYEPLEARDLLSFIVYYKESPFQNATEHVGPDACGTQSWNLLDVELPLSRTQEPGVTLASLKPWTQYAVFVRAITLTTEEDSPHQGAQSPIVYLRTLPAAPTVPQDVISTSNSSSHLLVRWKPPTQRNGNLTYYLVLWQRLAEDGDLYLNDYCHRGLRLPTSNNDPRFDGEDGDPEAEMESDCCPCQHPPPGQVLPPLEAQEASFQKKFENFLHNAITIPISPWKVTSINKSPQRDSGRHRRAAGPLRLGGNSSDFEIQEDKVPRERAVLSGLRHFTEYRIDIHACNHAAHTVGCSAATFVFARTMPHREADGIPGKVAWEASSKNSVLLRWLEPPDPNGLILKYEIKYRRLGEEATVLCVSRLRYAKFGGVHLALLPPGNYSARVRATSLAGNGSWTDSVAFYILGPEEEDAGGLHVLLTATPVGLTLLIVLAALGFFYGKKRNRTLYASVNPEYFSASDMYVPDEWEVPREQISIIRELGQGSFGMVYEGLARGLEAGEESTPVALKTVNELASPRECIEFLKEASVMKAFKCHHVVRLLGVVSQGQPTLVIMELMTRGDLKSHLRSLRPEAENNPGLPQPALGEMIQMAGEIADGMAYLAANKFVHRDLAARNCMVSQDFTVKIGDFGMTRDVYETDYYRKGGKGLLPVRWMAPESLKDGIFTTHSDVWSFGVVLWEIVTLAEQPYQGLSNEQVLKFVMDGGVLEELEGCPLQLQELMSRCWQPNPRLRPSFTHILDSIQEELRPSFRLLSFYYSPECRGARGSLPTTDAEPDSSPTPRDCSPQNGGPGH
Sequence of TTBK2 (Q6IQ55 whole entry, species assumed): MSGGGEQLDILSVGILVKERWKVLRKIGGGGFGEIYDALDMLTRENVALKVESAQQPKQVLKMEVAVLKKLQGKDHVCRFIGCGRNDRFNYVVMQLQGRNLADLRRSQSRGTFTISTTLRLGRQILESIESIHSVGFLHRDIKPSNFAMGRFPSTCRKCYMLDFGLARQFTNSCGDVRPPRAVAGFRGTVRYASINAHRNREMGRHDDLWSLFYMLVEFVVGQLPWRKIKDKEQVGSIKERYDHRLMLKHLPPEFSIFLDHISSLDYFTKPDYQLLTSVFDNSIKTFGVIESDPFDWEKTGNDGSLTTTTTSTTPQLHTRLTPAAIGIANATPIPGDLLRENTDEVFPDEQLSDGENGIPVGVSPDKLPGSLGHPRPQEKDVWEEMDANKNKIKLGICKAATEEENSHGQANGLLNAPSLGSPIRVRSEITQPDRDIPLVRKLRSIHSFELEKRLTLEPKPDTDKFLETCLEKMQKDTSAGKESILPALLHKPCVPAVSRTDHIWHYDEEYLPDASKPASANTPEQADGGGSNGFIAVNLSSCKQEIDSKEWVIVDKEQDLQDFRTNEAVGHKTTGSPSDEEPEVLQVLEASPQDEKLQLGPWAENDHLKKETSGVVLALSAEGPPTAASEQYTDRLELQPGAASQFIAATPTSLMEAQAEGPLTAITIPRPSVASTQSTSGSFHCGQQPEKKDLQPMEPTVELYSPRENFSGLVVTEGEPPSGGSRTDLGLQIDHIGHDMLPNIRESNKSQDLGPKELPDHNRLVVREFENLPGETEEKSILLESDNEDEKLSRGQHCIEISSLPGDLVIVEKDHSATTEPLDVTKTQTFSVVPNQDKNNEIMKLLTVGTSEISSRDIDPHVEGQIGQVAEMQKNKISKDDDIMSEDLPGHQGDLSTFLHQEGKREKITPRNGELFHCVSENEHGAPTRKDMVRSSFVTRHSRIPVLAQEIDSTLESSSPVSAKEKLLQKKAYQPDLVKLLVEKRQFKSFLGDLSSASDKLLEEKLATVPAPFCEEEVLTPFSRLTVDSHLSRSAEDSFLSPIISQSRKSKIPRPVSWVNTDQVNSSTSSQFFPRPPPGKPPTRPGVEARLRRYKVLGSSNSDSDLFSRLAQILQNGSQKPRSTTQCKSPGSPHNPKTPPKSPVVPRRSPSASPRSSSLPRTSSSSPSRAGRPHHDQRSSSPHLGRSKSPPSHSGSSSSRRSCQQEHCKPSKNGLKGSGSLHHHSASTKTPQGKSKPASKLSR

Structure (SMILES) | residual kinase activity, PHK (PHK; [1]) | residual kinase activity, MAPKAP-K2 (MAPKAP-K2; [1]) | residual kinase activity, PIM2 (PIM2; [1]) | residual kinase activity, CHK1 (CHK1; [1]) | residual kinase activity, MPSK1 (MPSK1; [1]) | residual kinase activity, IRR (IRR; [1]) | residual kinase activity, MST3 (MST3; [1]) | residual kinase activity, Aurora A (Aurora A; [1]) | residual kinase activity, TTBK2 (TTBK2) | residual kinase activity, EPH-B1 (EPH-B1; [1]) | residual kinase activity, IR (IR; [1]) | other results
CC(=O)Nc1nc2cc(O)ccc2s1 [Compound 01-66, N-(5-hydroxybenzo[d]thiazol-2-yl)acetamide] | 49 |  |  |  |  |  |  |  |  |  |  | remaining activity at 100 µM (MAPKAP-K2): 77%; remaining activity at 100 µM (PIM2): 16%; remaining activity at 100 µM (CHK1): 75%; remaining activity at 100 µM (MPSK1): 80%; remaining activity at 100 µM (IRR): 30%; remaining activity at 100 µM (MST3): 79%; remaining activity at 100 µM (Aurora A): 87%; remaining activity at 100 µM (EPH-B1): 93%; remaining activity at 100 µM (IR): 63%
CC(=O)Nc1nc2ccc(O)cc2s1 [Compound 01-71] | 47 |  |  |  |  |  |  |  |  |  |  | remaining activity at 100 µM (MAPKAP-K2; [1]): 46%; remaining activity at 100 µM (PIM2; [1]): 38%; remaining activity at 100 µM (CHK1; [1]): 82%; remaining activity at 100 µM (MPSK1; [1]): 77%; remaining activity at 100 µM (IRR; [1]): 34%; remaining activity at 100 µM (MST3; [1]): 66%; remaining activity at 100 µM (Aurora A; [1]): 68%; remaining activity at 100 µM (EPH-B1; [1]): 86%; remaining activity at 100 µM (IR; [1]): 35%
O=C(Nc1nc2cc(O)ccc2s1)c1cccnc1 [Compound 03-33] | 74 | 109 | 69 | 106 | 101 | 51 | 90 | 108 | 102 | 104 | 105 | 
O=C(Nc1nc2cc(O)ccc2s1)c1ccccn1 [Compound 03-13] | 28 | 98 | 77 | 88 | 102 | 78 | 78 | 93 | 71 | 98 | 74 | 
CC(=O)Nc1nc2cc(C)ccc2s1 [Compound 03-76] | 87 | 105 | 82 | 102 | 91 | 66 | 85 | 109 | 97 | 103 | 97 | 
O=C(Nc1nc2ccc(O)cc2s1)c1ccncc1 [Compound 08-42] | 58 | 72 | 90 | 70 | 77 | 71 | 77 | 103 | 74 | 93 | 51 | 
O=C(Nc1nc2ccc(O)cc2s1)c1ccccn1 [Compound 03-12] | 37 | 43 | 75 | 90 | 90 | 82 | 85 | 95 | 102 | 94 | 27 | 
CC(=O)Nc1cccc(NC(=O)c2nc3ccc(O)cc3s2)c1 [Compound 03-07, N-(3-acetamidophenyl)-6-hydroxybenzo[d]thiazole-2-carboxamide] |  |  |  |  |  |  |  |  |  |  |  | remaining activity at 100 µM (MAPKAP-K2; [2]): 51%; remaining activity at 100 µM (PIM2; [2]): 61%; residual kinase activity, PHK (PHK; [2]): 55; remaining activity at 100 µM (CHK1; [2]): 113%; remaining activity at 100 µM (MPSK1; [2]): 108%; remaining activity at 100 µM (IRR; [2]): 75%; remaining activity at 100 µM (MST3; [2]): 85%; remaining activity at 100 µM (Aurora A; [2]): 110%; remaining activity at 100 µM (TTBK2; 100 micromolar inhibitor, 100 = no change, read-out: residual kinase activity, TTBK2): 71%; remaining activity at 100 µM (EPH-B1; [2]): 104%; remaining activity at 100 µM (IR; [2]): 66%
O=C(Nc1nc2ccc(O)cc2s1)c1ccccc1 [Compound 03-60] | 33 | 59 | 67 | 72 | 106 | 31 | 54 | 82 | 44 | 98 | 31 | 
CC(=O)Nc1nc2ccccc2s1 [Compound 03-32] | 94 | 102 | 100 | 105 | 86 | 63 | 87 | 109 | 85 | 97 | 87 | 
